Experiments:
Type in all cases: biochemical
[1] = target: T1, Human Tyk2 kinase domain (Homo sapiens, UniProt P29597); experiment: Tyk2 Inhibition Assay (Omnia kinase fluorescence peptide substrate); conditions: averaged IC50 ranges; 10 μM (Km app) or 1 mM ATP, 2 nM Tyk2
T1 construct: comprising amino acids 886 to 1187; His10 (10 histidine residues) (C, cleaved yes); made in house
T1 sequence (P29597 886-1187): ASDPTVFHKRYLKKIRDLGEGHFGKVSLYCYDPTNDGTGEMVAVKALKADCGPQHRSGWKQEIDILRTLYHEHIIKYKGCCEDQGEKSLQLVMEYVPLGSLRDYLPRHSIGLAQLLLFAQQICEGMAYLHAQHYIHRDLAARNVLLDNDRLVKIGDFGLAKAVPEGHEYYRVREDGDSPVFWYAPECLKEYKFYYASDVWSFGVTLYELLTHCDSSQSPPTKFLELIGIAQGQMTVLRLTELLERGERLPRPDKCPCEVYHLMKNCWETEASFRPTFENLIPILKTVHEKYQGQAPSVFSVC
Outline: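 Phosphorylation of 8 μM Omnia Y12 peptide followed kinetically by Sox fluorescence, ex 360/em 485 nm, every 50 s for 45 min. Enzyme: 2 nM Tyk2 kinase domain (aa 886–1187, His tag removed); ATP at 10 μM (Km app) or 1 mM; buffer HEPES pH 7.4 with MgCl2, Triton X-100, DTT. 10-point curves up to 10 μM, IC50 from 4-parameter logistic fit.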

[2] = target: T2, JAK1 (Homo sapiens, UniProt P23458); experiment: JAK1 Inhibition Assay (Omnia kinase fluorescence peptide substrate); conditions: averaged IC50 ranges; 40 μM (Km app) or 1 mM ATP, 15 nM JAK1
T2 construct: purchased Invitrogen Corporation, Carlsbad, Calif; IVGN PV4775
T2 sequence (P23458 whole entry): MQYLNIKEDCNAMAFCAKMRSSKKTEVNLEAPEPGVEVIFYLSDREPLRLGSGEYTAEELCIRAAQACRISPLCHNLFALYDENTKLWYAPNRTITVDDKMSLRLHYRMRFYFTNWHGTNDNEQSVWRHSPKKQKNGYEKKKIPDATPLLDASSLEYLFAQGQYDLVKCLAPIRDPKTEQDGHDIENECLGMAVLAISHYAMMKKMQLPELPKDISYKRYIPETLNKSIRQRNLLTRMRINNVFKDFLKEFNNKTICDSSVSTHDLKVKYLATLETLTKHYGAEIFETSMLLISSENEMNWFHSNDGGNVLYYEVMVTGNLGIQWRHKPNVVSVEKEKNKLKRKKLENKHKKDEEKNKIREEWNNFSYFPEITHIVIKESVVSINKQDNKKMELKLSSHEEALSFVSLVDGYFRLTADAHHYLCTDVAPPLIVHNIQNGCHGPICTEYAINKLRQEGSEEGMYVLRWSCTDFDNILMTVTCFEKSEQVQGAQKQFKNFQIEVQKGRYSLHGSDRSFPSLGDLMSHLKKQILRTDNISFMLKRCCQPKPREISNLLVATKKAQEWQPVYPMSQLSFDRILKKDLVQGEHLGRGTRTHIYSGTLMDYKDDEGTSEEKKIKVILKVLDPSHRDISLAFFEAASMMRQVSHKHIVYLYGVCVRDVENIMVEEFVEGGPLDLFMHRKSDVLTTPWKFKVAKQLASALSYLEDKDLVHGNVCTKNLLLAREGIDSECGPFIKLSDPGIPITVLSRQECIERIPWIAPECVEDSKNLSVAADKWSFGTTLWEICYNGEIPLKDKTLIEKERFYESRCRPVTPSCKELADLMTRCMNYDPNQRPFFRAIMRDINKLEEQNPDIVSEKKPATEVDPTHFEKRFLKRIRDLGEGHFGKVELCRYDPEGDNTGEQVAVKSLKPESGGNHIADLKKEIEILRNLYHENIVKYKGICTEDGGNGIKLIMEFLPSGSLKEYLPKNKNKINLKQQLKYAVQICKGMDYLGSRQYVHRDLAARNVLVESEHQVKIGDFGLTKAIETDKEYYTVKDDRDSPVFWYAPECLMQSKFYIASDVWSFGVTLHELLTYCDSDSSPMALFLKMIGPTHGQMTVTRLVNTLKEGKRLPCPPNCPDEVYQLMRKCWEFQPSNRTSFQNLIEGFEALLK
Outline: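 15 nM JAK1, 8 μM Omnia Y12 peptide, 40 μM (Km app) or 1 mM ATP; 25 mM HEPES pH 7.4, 10 mM MgCl2, 2% DMSO. Fluorescence (ex 360/em 485 nm) read every 50 s over 45 min. IC50 by 4-parameter fit of percent of control, top dose 10 μM.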

[3] = target: T3, JAK2 (Homo sapiens, UniProt O60674); experiment: JAK2 Inhibition Assay (Omnia kinase fluorescence peptide substrate); conditions: averaged IC50 ranges; 25 μM (Km app) or 1 mM ATP, 5 nM JAK2
T3 construct: purchased Invitrogen Corporation, Carlsbad, Calif; IVGN PV4288
T3 sequence (O60674 whole entry): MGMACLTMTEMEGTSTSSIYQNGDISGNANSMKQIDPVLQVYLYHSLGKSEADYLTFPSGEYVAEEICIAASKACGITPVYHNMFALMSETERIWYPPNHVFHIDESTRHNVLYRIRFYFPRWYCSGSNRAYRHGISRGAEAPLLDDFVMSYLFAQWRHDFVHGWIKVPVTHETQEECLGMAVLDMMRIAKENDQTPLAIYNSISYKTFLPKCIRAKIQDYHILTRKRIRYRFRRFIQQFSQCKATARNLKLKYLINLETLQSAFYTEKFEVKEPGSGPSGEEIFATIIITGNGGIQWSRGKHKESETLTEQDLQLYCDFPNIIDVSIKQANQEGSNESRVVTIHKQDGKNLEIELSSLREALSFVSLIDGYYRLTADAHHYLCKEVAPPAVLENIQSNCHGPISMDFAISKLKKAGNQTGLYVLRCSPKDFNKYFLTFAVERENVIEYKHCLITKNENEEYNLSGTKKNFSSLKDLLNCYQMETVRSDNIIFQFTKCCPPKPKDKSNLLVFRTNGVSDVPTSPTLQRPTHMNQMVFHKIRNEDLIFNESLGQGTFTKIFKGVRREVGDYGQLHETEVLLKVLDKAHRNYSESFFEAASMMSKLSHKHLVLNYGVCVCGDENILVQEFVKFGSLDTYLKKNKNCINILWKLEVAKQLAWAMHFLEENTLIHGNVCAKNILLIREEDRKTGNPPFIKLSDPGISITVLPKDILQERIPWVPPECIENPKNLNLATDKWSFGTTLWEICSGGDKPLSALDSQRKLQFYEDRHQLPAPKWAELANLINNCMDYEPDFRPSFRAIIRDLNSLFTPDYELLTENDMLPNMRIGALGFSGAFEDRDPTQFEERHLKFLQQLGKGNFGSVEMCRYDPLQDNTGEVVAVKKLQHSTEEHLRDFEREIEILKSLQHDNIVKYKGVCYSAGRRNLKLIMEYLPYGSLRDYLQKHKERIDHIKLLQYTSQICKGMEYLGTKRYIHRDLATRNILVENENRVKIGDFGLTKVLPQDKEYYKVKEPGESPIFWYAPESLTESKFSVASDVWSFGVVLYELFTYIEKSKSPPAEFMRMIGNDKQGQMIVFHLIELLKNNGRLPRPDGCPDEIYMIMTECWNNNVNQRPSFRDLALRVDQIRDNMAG

[4] = target: T4, JAK3 (Homo sapiens, UniProt P52333); experiment: JAK3 Inhibition Assay (Omnia kinase fluorescence peptide substrate); conditions: averaged IC50 ranges; 10 μM (Km app) or 1 mM ATP, 2.5 nM JAK3
T4 construct: purchased Invitrogen Corporation, Carlsbad, Calif; IVGN PV4080
T4 sequence (P52333 1-1124): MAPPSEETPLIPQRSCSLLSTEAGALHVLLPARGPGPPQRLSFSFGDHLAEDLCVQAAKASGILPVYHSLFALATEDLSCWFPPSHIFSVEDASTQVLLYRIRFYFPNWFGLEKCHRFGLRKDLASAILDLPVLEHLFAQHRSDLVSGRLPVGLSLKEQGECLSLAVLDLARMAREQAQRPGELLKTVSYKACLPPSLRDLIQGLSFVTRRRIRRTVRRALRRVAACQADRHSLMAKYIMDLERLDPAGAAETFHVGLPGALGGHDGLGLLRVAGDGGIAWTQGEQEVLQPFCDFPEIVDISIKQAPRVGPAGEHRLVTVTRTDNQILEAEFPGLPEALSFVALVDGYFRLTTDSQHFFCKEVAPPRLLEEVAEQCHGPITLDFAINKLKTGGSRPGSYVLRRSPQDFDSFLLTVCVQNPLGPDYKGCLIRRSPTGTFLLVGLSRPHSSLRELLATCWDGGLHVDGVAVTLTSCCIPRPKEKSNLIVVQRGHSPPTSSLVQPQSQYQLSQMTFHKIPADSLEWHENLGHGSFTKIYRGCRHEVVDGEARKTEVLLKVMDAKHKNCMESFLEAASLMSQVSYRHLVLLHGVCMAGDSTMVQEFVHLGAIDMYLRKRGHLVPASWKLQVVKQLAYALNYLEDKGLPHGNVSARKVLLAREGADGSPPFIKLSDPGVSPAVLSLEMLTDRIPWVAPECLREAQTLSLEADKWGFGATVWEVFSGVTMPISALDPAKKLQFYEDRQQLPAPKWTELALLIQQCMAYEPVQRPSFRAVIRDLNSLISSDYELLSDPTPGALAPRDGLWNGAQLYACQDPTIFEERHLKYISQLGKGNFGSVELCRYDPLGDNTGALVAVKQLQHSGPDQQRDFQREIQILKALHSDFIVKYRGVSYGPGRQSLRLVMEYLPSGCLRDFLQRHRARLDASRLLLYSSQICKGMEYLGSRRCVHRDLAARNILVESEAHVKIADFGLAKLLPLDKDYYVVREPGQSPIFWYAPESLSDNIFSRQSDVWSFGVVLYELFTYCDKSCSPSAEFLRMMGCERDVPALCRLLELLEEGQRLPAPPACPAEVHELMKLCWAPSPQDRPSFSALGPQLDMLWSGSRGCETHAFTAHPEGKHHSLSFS
Outline: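 IC50 is the concentration giving 50 percent of control on a 4-parameter logistic fit of 10-point, 3-fold dilutions from a 10 μM top dose, at 2% final DMSO. Kinetic Sox fluorescence (360/485 nm) was monitored every 50 s for 45 min. Mix: JAK3 2.5 nM, Omnia Y7 peptide 10 μM, ATP 10 μM (Km app) or 1 mM, in HEPES pH 7.4 buffer with MgCl2, Triton X-100 and DTT.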

IC50 [1] [nM] | IC50 [2] [nM] | IC50 [3] [nM] | IC50 [4] [nM] | SMILES
10 to 100 | 100 to 1000 | 100 to 1000 | 100 to 1000 | CC=C[C@@H](C1CC1)n1cc(-c2nc(-c3cnn(C)c3)cc3nccn23)cn1 [Example 39, (R)-5-(1-(1-cyclopropylbut-2-en-1-yl)-1H-pyrazol-4-yl)-7-(1-methyl-1H-pyrazol-4-yl)imidazo[1,2-c]pyrimidine]
100 to 1000 | > 1000 | 100 to 1000 | > 1000 | C[C@@H](O)C[C@H](C1CC1)n1cc(-c2nc(-c3cnn(C)c3)cc3nccn23)cn1 [Example 40, (2R,4R)-4-cyclopropyl-4-(4-(7-(1-methyl-1H-pyrazol-4-yl)imidazo[1,2-c]pyrimidin-5-yl)-1H-pyrazol-1-yl)butan-2-ol]
100 to 1000 | > 1000 | 100 to 1000 | > 1000 | C[C@H](O)C[C@@H](C1CC1)n1cc(-c2nc(-c3cnn(C)c3)cc3nccn23)cn1 [Example 41, (2S,4S)-4-cyclopropyl-4-(4-(7-(1-methyl-1H-pyrazol-4-yl)imidazo[1,2-c]pyrimidin-5-yl)-1H-pyrazol-1-yl)butan-2-ol]
< 10 | 100 to 1000 | 10 to 100 | 100 to 1000 | CC[C@H](CCF)n1cc(-c2nc(-c3cnn(C)c3)cc3nccn23)cn1 [Example 42, (R)-5-(1-(1-fluoropentan-3-yl)-1H-pyrazol-4-yl)-7-(1-methyl-1H-pyrazol-4-yl)imidazo[1,2-c]pyrimidine]
10 to 100 | 100 to 1000 | 10 to 100 | 100 to 1000 | CC[C@@H](CCF)n1cc(-c2nc(-c3cnn(C)c3)cc3nccn23)cn1 [Example 43, (S)-5-(1-(1-fluoropentan-3-yl)-1H-pyrazol-4-yl)-7-(1-methyl-1H-pyrazol-4-yl)imidazo[1,2-c]pyrimidine]
10 to 100 | 100 to 1000 | 10 to 100 | 100 to 1000 | Cn1cc(-c2cc3nccn3c(-c3cnn(C(C/C=C\F)C4CC4)c3)n2)cn1 (stereo not drawn) [Example 44, (Z)-5-(1-(1-cyclopropyl-4-fluorobut-3-en-1-yl)-1H-pyrazol-4-yl)-7-(1-methyl-1H-pyrazol-4-yl)imidazo[1,2-c]pyrimidine]
100 to 1000 | > 1000 | 100 to 1000 | > 1000 | CC#CCC(C1CC1)n1cc(-c2nc(-c3cnn(C)c3)cc3nccn23)cn1 (stereo not drawn) [Example 45, 5-(1-(1-cyclopropylpent-3-yn-1-yl)-1H-pyrazol-4-yl)-7-(1-methyl-1H-pyrazol-4-yl)imidazo[1,2-c]pyrimidine]
100 to 1000 | 100 to 1000 | 100 to 1000 | > 1000 | Cn1cc(-c2cc3nccn3c(-c3cnn(C4(CCF)CN(S(=O)(=O)NC5CC5)C4)c3)n2)cn1 [Example 46, N-cyclopropyl-3-(2-fluoroethyl)-3-(4-(7-(1-methyl-1H-pyrazol-4-yl)imidazo[l,2-c]pyrimidin-5-yl)-1H-pyrazol-1-yl)azetidine-1-sulfonamide]
10 to 100 | 100 to 1000 | 10 to 100 | 100 to 1000 | Cn1cc(-c2cc3nccn3c(-c3cnn(C(CCC(F)F)C4CC4)c3)n2)cn1 (stereo not drawn) [Example 47, 5-(1-(1-cyclopropyl-4,4-difluorobutyl)-1H-pyrazol-4-yl)-7-(1-methyl-1H-pyrazol-4-yl)imidazo[1,2-c]pyrimidine]
< 10 | 10 to 100 | 10 to 100 | 10 to 100 | Cn1cc(-c2cc3nccn3c(-c3cnn([C@H](CC=C(F)F)C4CC4)c3)n2)cn1 [Example 49, (R)-5-(1-(1-cyclopropyl-4,4-difluorobut-3-en-1-yl)-1H-pyrazol-4-yl)-7-(1-methyl-1H-pyrazol-4-yl)imidazo[1,2-c]pyrimidine]
< 10 | 10 to 100 | < 10 | 10 to 100 | Cn1cc(-c2cc3nccn3c(-c3cnn([C@@H](CC=C(F)F)C4CC4)c3)n2)cn1 [Example 50, (S)-5-(1-(1-cyclopropyl-4,4-difluorobut-3-en-1-yl)-1H-pyrazol-4-yl)-7-(1-methyl-1H-pyrazol-4-yl)imidazo[1,2-c]pyrimidine]
< 10 | 10 to 100 | 10 to 100 | 10 to 100 | Cn1cc(-c2cc3nccn3c(-c3cnn(C4(CCF)CN(S(=O)(=O)C(F)F)C4)c3)n2)cn1 [Example 51]
10 to 100 | 100 to 1000 | 100 to 1000 | 100 to 1000 | Cn1cc(-c2cc3nccn3c(-c3cnn(C4(CCF)CCC4)c3)n2)cn1 [Example 52, 5-(1-(1-(2-fluoroethyl)cyclobutyl)-1H-pyrazol-4-yl)-7-(1-methyl-1H-pyrazol-4-yl)imidazo[1,2-c]pyrimidine]
100 to 1000 | > 1000 | 100 to 1000 | 100 to 1000 | COCCC1(n2cc(-c3nc(-c4cnn(C)c4)cc4nccn34)cn2)CCC1 [Example 53, 5-(1-(1-(2-methoxyethyl)cyclobutyl)-1H-pyrazol-4-yl)-7-(1-methyl-1H-pyrazol-4-yl)imidazo[1,2-c]pyrimidine]
< 10 | 10 to 100 | 10 to 100 | 10 to 100 | Cn1cc(-c2cc3nccn3c(-c3cnn(C(CC=C(F)F)C4CC4)c3)n2)cn1 (stereo not drawn) [Example 54, 5-(1-(1-cyclopropyl-4,4-difluorobut-3-en-1-yl)-1H-pyrazol-4-yl)-7-(1-methyl-1H-pyrazol-4-yl)imidazo[1,2-c]pyrimidine]
< 10 | 100 to 1000 | 10 to 100 | 100 to 1000 | C#CCC(C1CC1)n1cc(-c2nc(-c3cnn(C)c3)cc3nccn23)cn1 (stereo not drawn) [Example 55, 5-(1-(1-cyclopropylbut-3-yn-1-yl)-1H-pyrazol-4-yl)-7-(1-methyl-1H-pyrazol-4-yl)imidazo[1,2-c]pyrimidine]
100 to 1000 | > 1000 | > 1000 | > 1000 | Cn1cc(-c2cc3nccn3c(-c3cnn(C4(CCO)CCC4)c3)n2)cn1 [Example 56, 2-(1-(4-(7-(1-methyl-1H-pyrazol-4-yl)imidazo[1,2-c]pyrimidin-5-yl)-1H-pyrazol-1-yl)cyclobutyl)ethanol]
10 to 100 | 100 to 1000 | 100 to 1000 | 100 to 1000 | CCC(CCF)n1cc(-c2nc(-c3cnn(C)c3)cc3nccn23)cn1 (stereo not drawn) [Example 57, 5-(1-(1-fluoropentan-3-yl)-1H-pyrazol-4-yl)-7-(1-methyl-1H-pyrazol-4-yl)imidazo[1,2-c]pyrimidine]
